Results as given in ChEMBL document CHEMBL1151430, “Development of colistin-dependent Acinetobacter baumannii-Acinetobacter calcoaceticus complex” (2007).
In brackets after ≈: the same amount, converted by molar mass. Activity calls are given as the source filed them. No cut-off for these calls is given here.

Columns and labels:
[1] = system: Acinetobacter; assay: Antimicrobial activity against Acinetobacter baumannii-Acinetobacter calcoaceticus complex isolated from diabetic patient with calcaneal osteomyelitis by broth microdilution assay; assay type: functional
[2] = system: Acinetobacter; assay: Antimicrobial activity against 8 ug/ml colistin-subcultured Acinetobacter baumannii-Acinetobacter calcoaceticus complex isolated from diabetic patient with calcaneal osteomyelitis and bacteremia by broth microdilution assay; assay type: functional

| Compound | MIC [1] [µg/mL] | MIC [2] |
| --- | --- | --- |
| NCC[C@H](O)C(=O)N[C@@H]1C[C@H](N)[C@@H](O[C@H]2O[C@H](CN)[C@@H](O)[C@H](O)[C@H]2O)[C@H](O)[C@H]1O[C@H]1O[C@H](CO)[C@@H](O)[C@H](N)[C@H]1O [AMIKACIN] | 8 (≈ 13.7 µM) | inactive |
| CC1(C)S[C@@H]2[C@H](NC(=O)[C@H](N)c3ccccc3)C(=O)N2[C@H]1C(=O)O [AMPICILLIN] | > 8 | inactive |
| CC[C@H]1OC(=O)[C@H](C)[C@@H](O[C@H]2C[C@@](C)(OC)[C@@H](O)[C@H](C)O2)[C@H](C)[C@@H](O[C@@H]2O[C@H](C)C[C@H](N(C)C)[C@H]2O)[C@](C)(O)C[C@@H](C)CN(C)[C@H](C)[C@@H](O)[C@]1(C)O [AZITHROMYCIN] | 8 (≈ 10.7 µM) | inactive |
| CC(C)(O/N=C(\C(=O)N[C@@H]1C(=O)N2C(C(=O)[O-])=C(C[n+]3ccccc3)CS[C@H]12)c1csc(N)n1)C(=O)O [CEFTAZIDIME] | > 64 | inactive |
| O=C(O)[C@H]1/C(=C/CO)O[C@@H]2CC(=O)N21 [CLAVULANIC ACID] | > 2 | inactive |
| C[C@H]1c2cccc(O)c2C(=O)C2=C(O)[C@]3(O)C(=O)C(C(N)=O)=C(O)[C@@H](N(C)C)[C@@H]3[C@@H](O)[C@@H]21.O [DOXYCYCLINE] | 8 | 1 µg/mL |
| C[C@@H](O)[C@H]1C(=O)N2C(C(=O)O)=C(SCCNC=N)C[C@H]12 [IMIPENEM ANHYDROUS] | 16 (≈ 53.4 µM) | inactive |
| CN(C)c1ccc(O)c2c1C[C@H]1C[C@H]3[C@H](N(C)C)C(O)=C(C(N)=O)C(=O)[C@@]3(O)C(O)=C1C2=O [MINOCYCLINE] | 1 (≈ 2.19 µM) | inactive |
| CC1(C)[C@H](C(=O)O)N2C(=O)C[C@H]2S1(=O)=O [SULBACTAM] | > 64 | inactive |
| CC1(C)S[C@@H]2[C@H](NC(=O)[C@H](C(=O)O)c3ccsc3)C(=O)N2[C@H]1C(=O)O [TICARCILLIN] | > 256 | inactive |
| CN(C)c1cc(NC(=O)CNC(C)(C)C)c(O)c2c1C[C@H]1C[C@H]3[C@H](N(C)C)C(O)=C(C(N)=O)C(=O)[C@@]3(O)C(O)=C1C2=O [TIGECYCLINE] | 2 (≈ 3.41 µM) | 0.12 µg/mL |
| COLISTIN | 1 | > 16 µg/mL |
| GENTAMICIN | > 8 | inactive |
| POLYMYXIN B | 1 | 4 µg/mL |
